Experimental data: ChEMBL document CHEMBL5154642, “Development of [18F]MIPS15692, a radiotracer with in vitro proof-of-concept for the imaging of MER tyrosine kinase (MERTK) in neuroinflammatory disease” (Eur J Med Chem, 2021)

Legend:
[1] = Drug uptake in Swiss outbred mouse brain assessed as time required to reach peak value at 3 mg/kg, iv measured after 60 mins by LC-MS/MS analysis; format: ADME, organism-based
[2] = Retention time of the compound by HPLC analysis; format: physicochemical
[3] = Drug uptake in brain of cuprizone-challenged C57BL/6 mouse at 4.4 mg/kg, iv by PET imaging measured upto 2 mins; format: ADME, organism-based; conditions: in vivo
[4] = biological target: T1, Tyrosine-protein kinase Mer (Mus musculus, UniProt Q60805); test: Binding affinity to MERTK in cuprizone-challenged C57BL/6 mouse brain CC/HC region assessed as dissociation constant at 18.1 nM by autoradiography; format: tissue-based
T1 sequence (Q60805 whole entry): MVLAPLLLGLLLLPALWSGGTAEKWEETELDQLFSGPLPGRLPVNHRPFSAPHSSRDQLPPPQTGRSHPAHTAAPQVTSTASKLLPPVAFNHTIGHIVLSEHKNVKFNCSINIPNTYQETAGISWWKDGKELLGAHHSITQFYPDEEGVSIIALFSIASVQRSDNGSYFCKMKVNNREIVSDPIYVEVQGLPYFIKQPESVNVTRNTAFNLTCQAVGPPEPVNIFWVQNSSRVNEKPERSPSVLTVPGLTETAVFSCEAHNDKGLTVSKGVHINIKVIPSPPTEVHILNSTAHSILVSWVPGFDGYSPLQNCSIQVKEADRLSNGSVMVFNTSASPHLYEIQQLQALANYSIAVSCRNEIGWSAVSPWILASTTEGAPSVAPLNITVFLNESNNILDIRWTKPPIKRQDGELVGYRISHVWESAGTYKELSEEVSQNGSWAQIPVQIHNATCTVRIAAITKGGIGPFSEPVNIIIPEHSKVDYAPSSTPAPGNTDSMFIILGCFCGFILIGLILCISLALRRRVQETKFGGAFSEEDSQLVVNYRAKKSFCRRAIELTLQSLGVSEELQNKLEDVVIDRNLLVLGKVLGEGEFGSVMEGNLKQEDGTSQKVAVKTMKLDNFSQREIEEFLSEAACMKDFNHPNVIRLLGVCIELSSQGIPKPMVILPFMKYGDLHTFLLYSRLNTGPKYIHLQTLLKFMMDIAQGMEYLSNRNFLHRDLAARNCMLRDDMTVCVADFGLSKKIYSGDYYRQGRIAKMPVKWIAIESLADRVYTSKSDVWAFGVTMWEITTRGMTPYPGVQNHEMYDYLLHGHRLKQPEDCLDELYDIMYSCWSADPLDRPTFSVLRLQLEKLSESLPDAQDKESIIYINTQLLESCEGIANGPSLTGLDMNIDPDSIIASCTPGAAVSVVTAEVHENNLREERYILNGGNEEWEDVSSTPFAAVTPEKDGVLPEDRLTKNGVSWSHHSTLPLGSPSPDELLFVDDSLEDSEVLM

[5] = biological target: T1, Tyrosine-protein kinase Mer; test: Binding affinity to MERTK in cuprizone-challenged C57BL/6 mouse whole brain assessed as dissociation constant at 18.1 nM by autoradiography; format: tissue-based
[6] = Drug uptake in liver of cuprizone-challenged C57BL/6 mouse at 4.4 mg/kg, iv by PET imaging; format: ADME, organism-based; conditions: in vivo
[7] = Retention time of the compound by UV-Vis spectroscopy analysis; format: physicochemical
[8] = Drug uptake in heart of cuprizone-challenged C57BL/6 mouse at 4.4 mg/kg, iv by PET imaging; format: ADME, organism-based; conditions: in vivo
[9] = biological target: T2, Tyrosine-protein kinase Mer (Mus musculus) (UniProt Q60805); test: Binding affinity to MERTK in cuprizone-challenged C57BL/6 mouse brain CC/HC region assessed as maximum binding at 18.1 nM by autoradiography; format: tissue-based; conditions: tested as the 18F-labelled form
T2 sequence (whole entry): T1 sequence (Q60805 whole entry)

[10] = Unbound brain-to-plasma concentration ratio in Swiss outbred mouse at 4.4 mg/kg, iv measured after 2 hrs; format: ADME, organism-based; conditions: read-out: K(p,uu,brain)
[11] = biological target: T2, Tyrosine-protein kinase Mer (Mus musculus); test: Binding affinity to MERTK in cuprizone-challenged C57BL/6 mouse whole brain assessed as maximum binding at 18.1 nM by autoradiography; format: tissue-based; conditions: tested as the 18F-labelled form

SMILES	Tmax [1]	Retention_time [2]	Drug uptake [3]	Kd [4]	Kd [5]	Drug uptake [6]	Retention_time [7]	Drug uptake [8]	Bmax [9]	Kp uu at 2 h [10]	Bmax [11]
CCCCNc1ncc(C(=O)NC2CCN(CCF)CC2)c(N[C@H]2CC[C@H](O)CC2)n1	15 min	–	–	–	–	–	–	–	–	–	–
CCCCNc1ncc(C(=O)NC2CCN(CCC[18F])CC2)c(N[C@H]2CC[C@H](O)CC2)n1	–	18.57 min	0.023%	19.7 nM	12.6 nM	<= 0.24%	18.8 min	<= 0.24%	–	–	–
CCCCNc1ncc(C(=O)NC2CCN(CCCF)CC2)c(N[C@H]2CC[C@H](O)CC2)n1	15 min	–	–	–	–	–	–	–	896 fmol/mg	> 1	422 fmol/mg
